Starred links: 1 amine or outer side, 2 acyl side, 3 side chain; linkers in the order of their positions; H or OH if unused. Positions of bridges follow the written chain, without caps; N, C: chain ends. Non-standard residues stand in square brackets, D forms with d. Residues, ends and D or L forms follow the SMILES beside them. ξ: configuration not given here. *: point of attachment. X39 = Cn1nc(C(=O)NCc2ccc(-c3ccc(C[C@H](N[*:1])C(=O)[*:2])cc3)cc2)c2ccccc21; X5 = Cn1nc(C(=O)Nc2ccc(-c3ccc(C[C@H](N[*:1])C(=O)[*:2])cc3)cc2)c2ccccc21; X47 = O=C(Nc1ccc(-c2ccc(C[C@H](N[*:1])C(=O)[*:2])cc2)cc1)c1coc2ccccc12; Bip(4'-NH) = O=C([C@H](Cc1ccc(-c2ccc(N[*:3])cc2)cc1)N[*:1])[*:2]; Bip(4'-CONHMe) = CNC(=O)c1ccc(-c2ccc(C[C@H](N)C(=O)O)cc2)cc1; Indazole3carbonyl(1-CH2COOH) = O=C(O)Cn1nc(C(=O)*)c2ccccc21; Bip(4'-COOH) = N[C@@H](Cc1ccc(-c2ccc(C(=O)O)cc2)cc1)C(=O)O; X70 = O=C([C@H](Cc1ccc(-c2ccc(CN[*:3])cc2)cc1)N[*:1])[*:2]; X27 = N=C(NCCC[C@@H](N[*:1])C(=O)[*:2])NCCc1ccc2c(c1)OCO2; X18 = N=C(NCCC[C@@H](N[*:1])C(=O)[*:2])NCCc1ccc(O)cc1; X35 = N=C(NCCC[C@@H](N[*:1])C(=O)[*:2])NCCc1ccc(N)cc1; X58 = N=C(NCCC[C@@H](N[*:1])C(=O)[*:2])NCCc1cccc(N)c1; Ala(imidazol-2-yl) = N[C@@H](Cc1ncc[nH]1)C(=O)O; Ala(morpholin-4-yl) = N[C@@H](CN1CCOCC1)C(=O)O; Benzoyl(3-OCH2COOH) = O=C(O)COc1cccc(C(=O)*)c1; Bip = N[C@@H](Cc1ccc(-c2ccccc2)cc1)C(=O)O; X86 = O=C(O)Cn1ccc2cc(C(=O)*)ccc21; Cha = N[C@@H](CC1CCCCC1)C(=O)O; ξP = O=C(O)C1CCCN1; Sar = CNCC(=O)O
target: TNFα (Homo sapiens, UniProt P01375); experiment: TNF-Induced HEK-Blue Assay; assay type: cell-based; settings: not given
Sequence (P01375 77-233 limits assumed): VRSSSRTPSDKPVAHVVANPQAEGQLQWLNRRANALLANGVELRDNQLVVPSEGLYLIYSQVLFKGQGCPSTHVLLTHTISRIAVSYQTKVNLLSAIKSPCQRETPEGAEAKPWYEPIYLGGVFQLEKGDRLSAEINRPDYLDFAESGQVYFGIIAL

SMILES | IC50
CC(C)C[C@@H]1NC(=O)[C@H](CCCNC(=N)N)NC(=O)[C@H](C(C)C)NC(=O)[C@@H]2CCCN2C(=O)[C@H](C(C)C)NC(=O)[C@@H](CCCNC(=N)NCCc2ccc(O)cc2)NC(=O)[C@H](CC(=O)O)NC(=O)[C@@H]2CCCN2C(=O)CN(C)C(=O)[C@H](Cc2ccc(-c3ccc(NC(=O)c4nn(CC(=O)O)c5ccccc45)cc3)cc2)NC(=O)[C@H](Cc2ccc(-c3ccccc3)cc2)NC(=O)[C@H](CN2CCOCC2)NC(=O)CSC[C@@H](C(=O)NCC(N)=O)NC1=O [Example 403] ({CH2CO}-[Ala(morpholin-4-yl)][Bip][Bip(4'-NH)](Indazole3carbonyl(1-CH2COOH))[Sar]PD[X18]VPVRLCG-NH2; thioether N-13) | 50 to 200 nM
CC(C)C[C@@H]1NC(=O)[C@H](CCCNC(=N)N)NC(=O)[C@H](C(C)C)NC(=O)C2CCCN2C(=O)[C@H](C(C)C)NC(=O)[C@@H](CCCNC(=N)NCCc2ccc(O)cc2)NC(=O)[C@H](CC(=O)O)NC(=O)[C@@H]2CCCN2C(=O)CN(C)C(=O)[C@H](Cc2ccc(-c3ccc(NC(=O)c4nn(CC(=O)O)c5ccccc45)cc3)cc2)NC(=O)[C@H](Cc2ccc(-c3ccc(C(=O)O)cc3)cc2)NC(=O)[C@H](CN2CCOCC2)NC(=O)CSC[C@@H](C(=O)NCC(N)=O)NC1=O (some centres unmarked) [Example 404] ({CH2CO}-[Ala(morpholin-4-yl)][Bip(4'-COOH)][Bip(4'-NH)](Indazole3carbonyl(1-CH2COOH))[Sar]PD[X18]V[ξP]VRLCG-NH2; thioether N-13) | 50 to 200 nM
CC(C)C[C@@H]1NC(=O)[C@H](CCCNC(=N)N)NC(=O)[C@H](C(C)C)NC(=O)C2CCCN2C(=O)[C@H](C(C)C)NC(=O)[C@@H](CCCNC(=N)NCCc2cccc(N)c2)NC(=O)[C@H](CC(=O)O)NC(=O)[C@@H]2CCCN2C(=O)CN(C)C(=O)[C@H](Cc2ccc(-c3ccc(NC(=O)c4nn(CC(=O)O)c5ccccc45)cc3)cc2)NC(=O)[C@H](Cc2ccc(-c3ccccc3)cc2)NC(=O)[C@H](CN2CCOCC2)NC(=O)CSC[C@@H](C(=O)NCC(N)=O)NC1=O (some centres unmarked) [Example 405] ({CH2CO}-[Ala(morpholin-4-yl)][Bip][Bip(4'-NH)](Indazole3carbonyl(1-CH2COOH))[Sar]PD[X58]V[ξP]VRLCG-NH2; thioether N-13) | 50 to 200 nM
CC(C)C[C@@H]1NC(=O)[C@H](CCCNC(=N)N)NC(=O)[C@H](C(C)C)NC(=O)C2CCCN2C(=O)[C@H](C(C)C)NC(=O)[C@@H](CCCNC(=N)NCCc2cccc(N)c2)NC(=O)[C@H](CC(=O)O)NC(=O)[C@@H]2CCCN2C(=O)CN(C)C(=O)[C@H](Cc2ccc(-c3ccc(NC(=O)c4nn(CC(=O)O)c5ccccc45)cc3)cc2)NC(=O)[C@H](Cc2ccc(-c3ccc(C(=O)O)cc3)cc2)NC(=O)[C@H](CN2CCOCC2)NC(=O)CSC[C@@H](C(=O)NCC(N)=O)NC1=O (some centres unmarked) [Example 406] ({CH2CO}-[Ala(morpholin-4-yl)][Bip(4'-COOH)][Bip(4'-NH)](Indazole3carbonyl(1-CH2COOH))[Sar]PD[X58]V[ξP]VRLCG-NH2; thioether N-13) | 50 to 200 nM
CC(C)C[C@@H]1NC(=O)[C@H](CCCNC(=N)N)NC(=O)[C@H](C(C)C)NC(=O)[C@@H]2CCCN2C(=O)[C@H](C(C)C)NC(=O)[C@@H](CCCNC(=N)NCCc2ccc(N)cc2)NC(=O)[C@H](CC(=O)O)NC(=O)[C@@H]2CCCN2C(=O)CN(C)C(=O)[C@H](Cc2ccc(-c3ccc(NC(=O)c4nn(CC(=O)O)c5ccccc45)cc3)cc2)NC(=O)[C@H](Cc2ccc(-c3ccccc3)cc2)NC(=O)[C@H](CN2CCOCC2)NC(=O)CSC[C@@H](C(=O)NCC(N)=O)NC1=O [Example 407] ({CH2CO}-[Ala(morpholin-4-yl)][Bip][Bip(4'-NH)](Indazole3carbonyl(1-CH2COOH))[Sar]PD[X35]VPVRLCG-NH2; thioether N-13) | 50 to 200 nM
CC(C)C[C@@H]1NC(=O)[C@H](CCCNC(=N)N)NC(=O)[C@H](C(C)C)NC(=O)[C@@H]2CCCN2C(=O)[C@H](C(C)C)NC(=O)[C@@H](CCCNC(=N)NCCc2ccc3c(c2)OCO3)NC(=O)[C@H](CC(=O)O)NC(=O)[C@@H]2CCCN2C(=O)CN(C)C(=O)[C@H](Cc2ccc(-c3ccc(NC(=O)c4nn(CC(=O)O)c5ccccc45)cc3)cc2)NC(=O)[C@H](Cc2ccc(-c3ccccc3)cc2)NC(=O)[C@H](CN2CCOCC2)NC(=O)CSC[C@@H](C(=O)NCC(N)=O)NC1=O [Example 408] ({CH2CO}-[Ala(morpholin-4-yl)][Bip][Bip(4'-NH)](Indazole3carbonyl(1-CH2COOH))[Sar]PD[X27]VPVRLCG-NH2; thioether N-13) | < 50 nM
CC(C)C[C@@H]1NC(=O)[C@H](CCCNC(=N)N)NC(=O)[C@H](C(C)C)NC(=O)[C@@H]2CCCN2C(=O)[C@H](C(C)C)NC(=O)[C@@H](CCCNC(=N)NCCc2ccc3c(c2)OCO3)NC(=O)[C@H](CC(=O)O)NC(=O)[C@@H]2CCCN2C(=O)CN(C)C(=O)[C@H](Cc2ccc(-c3ccc(NC(=O)c4nn(CC(=O)O)c5ccccc45)cc3)cc2)NC(=O)[C@H](Cc2ccc(-c3ccc(C(=O)O)cc3)cc2)NC(=O)[C@H](CN2CCOCC2)NC(=O)CSC[C@@H](C(=O)NCC(N)=O)NC1=O [Example 409] ({CH2CO}-[Ala(morpholin-4-yl)][Bip(4'-COOH)][Bip(4'-NH)](Indazole3carbonyl(1-CH2COOH))[Sar]PD[X27]VPVRLCG-NH2; thioether N-13) | 50 to 200 nM

same assay, conditions: HEK-Blue-CD40L cells, NF-kB-driven secreted alkaline phosphatase reporter; TNFα 0.5 ng/ml; 18 h; read-out: TNF induced HEK-Blue assay IC50 value

IC50 | SMILES
< 50 nM | CC[C@H](C)[C@@H]1NC(=O)[C@@H](CCCNC(=N)N)NC(=O)[C@H](CC(=O)O)NC(=O)[C@H](Cc2cnc[nH]2)NC(=O)CN(C)C(=O)[C@H](Cc2ccc(-c3ccc(C(=O)NC)cc3)cc2)NC(=O)[C@H](Cc2ccc(-c3ccccc3)cc2)NC(=O)[C@H](CC2CCCCC2)NC(=O)CSC[C@@H](C(=O)NCC(N)=O)NC(=O)[C@H](CC(C)C)NC(=O)[C@H](Cc2cnc[nH]2)NC(=O)[C@H](C(C)C)NC(=O)[C@@H]2CCCN2C1=O [Example 396] ({CH2CO}-[Cha][Bip][Bip(4'-CONHMe)][Sar]HD[dR]IPVHLCG-NH2; thioether N-13)
50 to 200 nM | CC[C@H](C)[C@@H]1NC(=O)[C@@H](CCCNC(=N)N)NC(=O)[C@H](CC(=O)O)NC(=O)[C@H](Cc2cnc[nH]2)NC(=O)CN(C)C(=O)[C@H](Cc2ccc(-c3ccccc3)cc2)NC(=O)[C@H](Cc2ccc(-c3ccc(C(=O)NC)cc3)cc2)NC(=O)[C@H](CC2CCCCC2)NC(=O)CSC[C@@H](C(=O)NCC(N)=O)NC(=O)[C@H](CC(C)C)NC(=O)[C@H](Cc2cnc[nH]2)NC(=O)[C@H](C(C)C)NC(=O)[C@@H]2CCCN2C1=O [Example 397] ({CH2CO}-[Cha][Bip(4'-CONHMe)][Bip][Sar]HD[dR]IPVHLCG-NH2; thioether N-13)
< 50 nM | CC(C)C[C@@H]1NC(=O)[C@H](CCCNC(=N)N)NC(=O)[C@H](C(C)C)NC(=O)[C@@H]2CCCN2C(=O)[C@H](C(C)C)NC(=O)[C@@H](CCCNC(=N)N)NC(=O)[C@H](CC(=O)O)NC(=O)[C@@H]2CCCN2C(=O)CN(C)C(=O)[C@H](Cc2ccc(-c3ccc(NC(=O)c4ccc5c(ccn5CC(=O)O)c4)cc3)cc2)NC(=O)[C@H](Cc2ccc(-c3ccccc3)cc2)NC(=O)[C@H](CN2CCOCC2)NC(=O)CSC[C@@H](C(=O)NCC(N)=O)NC1=O [Example 398] ({CH2CO}-[Ala(morpholin-4-yl)][Bip][Bip(4'-NH)](X86)[Sar]PD[dR]VPVRLCG-NH2; thioether N-13)
200 to 2000 nM | CC[C@H](C)[C@@H]1NC(=O)[C@@H]2CCCN2C(=O)[C@H]([C@@H](C)CC)NC(=O)[C@@H](CCCNC(=N)N)NC(=O)[C@H](CC(=O)O)NC(=O)[C@H](Cc2ccccc2)NC(=O)CN(C)C(=O)[C@H](Cc2ccc(-c3ccc(CNC(=O)c4cccc(OCC(=O)O)c4)cc3)cc2)NC(=O)[C@H](Cc2ccc(-c3ccccc3)cc2)NC(=O)[C@H](CC2CCCCC2)NC(=O)CSC[C@@H](C(=O)NCC(N)=O)NC(=O)[C@H](CC(C)C)NC(=O)[C@H](Cc2ncc[nH]2)NC1=O [Example 399] ({CH2CO}-[Cha][Bip][X70](Benzoyl(3-OCH2COOH))[Sar]FD[dR]IPI[Ala(imidazol-2-yl)]LCG-NH2; thioether N-13)
50 to 200 nM | CC[C@H](C)[C@@H]1NC(=O)[C@@H]2CCCN2C(=O)[C@H]([C@@H](C)CC)NC(=O)[C@@H](CCCNC(=N)N)NC(=O)[C@H](CC(=O)O)NC(=O)[C@H](Cc2ccccc2)NC(=O)CN(C)C(=O)[C@H](Cc2ccc(-c3ccc(NC(=O)c4coc5ccccc45)cc3)cc2)NC(=O)[C@H](Cc2ccc(-c3ccccc3)cc2)NC(=O)[C@H](CC2CCCCC2)NC(=O)CSC[C@@H](C(=O)NCC(N)=O)NC(=O)[C@H](CC(C)C)NC(=O)[C@H](Cc2ncc[nH]2)NC1=O [Example 401] ({CH2CO}-[Cha][Bip][X47][Sar]FD[dR]IPI[Ala(imidazol-2-yl)]LCG-NH2; thioether N-13)

SMILES | IC50
CC[C@H](C)[C@@H]1NC(=O)[C@@H]2CCCN2C(=O)[C@H]([C@@H](C)CC)NC(=O)[C@@H](CCCNC(=N)N)NC(=O)[C@H](CC(=O)O)NC(=O)[C@H](Cc2ccccc2)NC(=O)CN(C)C(=O)[C@H](Cc2ccc(-c3ccc(CNC(=O)c4nn(C)c5ccccc45)cc3)cc2)NC(=O)[C@H](Cc2ccc(-c3ccccc3)cc2)NC(=O)[C@H](CC2CCCCC2)NC(=O)CSC[C@@H](C(=O)NCC(N)=O)NC(=O)[C@H](CC(C)C)NC(=O)[C@H](Cc2cnc[nH]2)NC1=O [Example 400] ({CH2CO}-[Cha][Bip][X39][Sar]FD[dR]IPIHLCG-NH2; thioether N-13) | 200 to 2000 nM
CC[C@H](C)[C@@H]1NC(=O)[C@@H]2CCCN2C(=O)[C@H]([C@@H](C)CC)NC(=O)[C@@H](CCCNC(=N)N)NC(=O)[C@H](CC(=O)O)NC(=O)[C@H](Cc2ccccc2)NC(=O)CN(C)C(=O)[C@H](Cc2ccc(-c3ccc(NC(=O)c4nn(C)c5ccccc45)cc3)cc2)NC(=O)[C@H](Cc2ccc(-c3ccccc3)cc2)NC(=O)[C@H](CC2CCCCC2)NC(=O)CSC[C@@H](C(=O)NCC(N)=O)NC(=O)[C@H](CC(C)C)NC(=O)[C@H](Cc2ncc[nH]2)NC1=O [Example 402] ({CH2CO}-[Cha][Bip][X5][Sar]FD[dR]IPI[Ala(imidazol-2-yl)]LCG-NH2; thioether N-13) | 50 to 200 nM
